Measured values reported in publication PMC9045296, “Development of Antifungal Peptides against Cryptococcus neoformans; Leveraging Knowledge about the cdc50Δ Mutant Susceptibility for Lead Compound Development” (Microbiology Spectrum, 2022).
≈ marks a conversion by molar mass, not a printed value. Like-named read-outs stand apart in the source and are kept apart here. Residues, ends and D or L forms follow the SMILES beside them. *: point of attachment. Myristoyl = CCCCCCCCCCCCCC(=O)*

What was measured:
[1] = test system: C. neoformans wild-type strain H99; assay: microbe, parasite or virus in culture; format: cell-based, Cryptococcus neoformans; conditions: for MIC: Cryptococcus neoformans
Description: (§1) Our assays followed standard CLSI protocol for broth microdilution assays using yeasts ([32]). Microbes were passaged in YPD media at 37°C with mixing for 2 days before harvesting with an inoculation loop to prepare monocultures on Sabouraud Dextrose Agar (SDA) plates. Monocultures on SDA plates were incubated for 2 days at 37°C before harvesting cells for microdilution assays. RPMI media (100 μL) was charged to each of the 96 wells in a 96-well plate, with an additional 100 μL in the first column. Peptide-DMSO solution (4 μL) at 12.8 mg/mL was charged to each of the wells in the first column. The 100 μL was serially diluted by a factor of 2 from the first column to the 11th column. Microbe inoculant was then prepared. An inoculation loop was used to transfer 1–3 colonies of cells to 1 mL phosphate buffer solution (PBS). The PBS and microbe solution was made uniform by vortex mixing. Cell concentration was computed by comparing the absorbance at 530 nm to 1x McFarland standard solution and multiplying the resulting ratio by 10^7 cell/mL conversion factor. Plate inoculant was prepared by diluting the PBS microbe solution to 5000 cell/mL, in RPMI media. A 100 μL aliquot of cells was transferred to each of the wells on the plate other than column 11 for the no growth control. The operating volume was 200 μL, with 500 CFU per well for a final concentration of 2.5*10^3 cells/mL. Inoculated plates were incubated for 48 h at 37°C and read at 24 and 48 h ([33]).

cdc50Δ mutant strain [2] = format: cell-based, Cryptococcus neoformans; conditions: Table S1, drug alone
Description: as §1

[3] = test system: C. neoformans wild-type strain H99; conditions: cited from earlier work
Excerpt: (§2) Recently, mutation studies discovered an essential role of Cryptococcus lipid flippase in echinocandin resistance ([6]). The lipid flippase is composed of the core P4 type ATPase (P4-ATPase) and a regulatory subunit Cdc50 ([7]). […] This loop region of Cdc50 has been reported in other organisms to bind to the P4-ATPase to regulate flippase activity ([8]).

cdc50Δ mutant strain [4] = conditions: cited from earlier work
Excerpt: as §2

C. neoformans H99 [5] = format: cell-based, Cryptococcus neoformans
Description: (§3) Again, 200 μL was the operating volume, 500CFU per well, 2.5*10^3 cell/mL. Plates were incubated for 48 h at 37°C and read thereafter. The Fractional Inhibitory Concentration Index were calculated in Equation 1: FICIndex=FICA/MICA+FICB/MICB

ΔCDC50 mutant strain = format: cell-based, Cryptococcus neoformans
Description: as §3

[6] = test system: human red blood cells (RBCs); assay: Hemolysis assay; format: cell-based; conditions: human RBC, 1 h at 37°C, relative to Triton X-100
Description: Operating conditions were 100 μL and 2.5*10^8cell/mL. […] The plate was incubated at 37°C for 1 h. […] The scans were run in triplicate.

[7] = test system: exofacial PS on C. neoformans cells; assay: AF350-annexin V flow cytometry assay; format: cell-based, Cryptococcus neoformans; conditions: 0.128 mg/mL peptide, 5*10^6 cell/mL, 20 min at 25°C, triplicate; control 0.2 ± 0.1%
Excerpt: We sought to determine whether the activities of the peptides were related to the lipid-flipping activity of the P4-ATPase. […] The intensity of the AF350-annexin V signal corresponds to concentration of PS on the exofacial side of the membrane. The propidium iodine signal corresponds to cell viability. […] Single cells were first selected and gated based on morphology to ensure homogeneity among the cell population (4A, 4B). We examined cells with low propidium iodine intensity (PI-A < 9 RU) and high AF350-annexin V intensity (Annexin V-A > 9 RU) (4C, 4D). Under these gating parameters there should be, respectively, low nonspecific cell death and high exofacial PS.
Stock microbes were defrosted from the –80°C freezer and were passed twice for 48 h each in YPD media. The YPD media was removed by spinning down and the supernatant was decanted. Pelletized cells were resuspended in 1 mL PBS media and washed for 5 min with incubation at 25°C and 250 RPM. Washed cells were spun down again and suspended in 1 mL of PBS solution. cells were diluted 20-fold into 1 mL fungal working solution in an eppendorf. Cell concentration was quantified via comparison to 1X McFarlain’s standard on a plate reader using the absorbance value at 530 nm. An aliquot of 1*10^6 cells in 100 μL was created (1*10^7cell/mL). A 100 μL aliquot of peptide working solution at 0.256 mg/mL was added to the cell suspension for final operating parameters of 200 μL, 0.128 mg/mL peptide, and 5*10^6cell/mL. The cells were incubated for 20 min at 25°C and 250RPM. Baseline and experimental samples were prepared in triplicate. Cells were stained using an operating concentration of 0.001 mg/mL Propidium Iodine (PI) and a 40-fold dilution of Alexa Fluor 350 labeled annexin V as per manufactures instructions. After staining the cells, samples were spun down and supernatant decanted. Cells were then fixed in 4% formaldehyde for 5 min. Fixed cells were spun down and supernatant decanted and resuspended in 400 μL 1% formaldehyde for flowcytometry. Samples were collected at a slow flow rate on a MACS Quant 10 device (Miltenyi Biotech, Auburn, CA) with 50,000 events collected per injection.

C. neoformans H99 [8] = assay: SDS and plate spotting assay; format: cell-based, Cryptococcus neoformans; conditions: H99 pretreated with 128 μg/mL peptide for 1 h at 30°C; compared to untreated or DMSO controls
Description: Briefly, cultures of C. neoformans were grown in YPD and then spotted on YPD plates containing 0.03% SDS.
To test cell integrity, C. neoformans strains from 3 mL YPD overnight cultures were washed, resuspended, and serially diluted (1:10) in dH2O and spotted (5 μl) on YPD agar plates or YPD agar plates containing 0.03% SDS and incubated for 2 days at 30°C and 37°C. […] Of each strain, yeast cells were inoculated into liquid YPD with 128 μg/mL or 64 μg/mL peptide and co-incubated for 1h at 30°C. And then, 10-fold serial dilutions were prepared, and 5 μl of each was spotted on YPD and YPD agar plates containing 0.03% SDS. The results were photographed after a 48 h of incubation. Their growth was determined by serial dilutions and the fungal colonies were assessed by CFU numbers.

Compound	MIC ([1]; Table S1, drug alone, wild type H99, read-out: MIC H99) [µg/mL]	MIC ([1]; drug alone, H99 wild type, CLSI broth microdilution, RPMI, 2.5*10^3 cells/mL, 37°C, read at 24 and 48 h, read-out: MIC) [µg/mL]	MIC ΔCDC50 (cdc50Δ mutant strain [2]) [µg/mL]	MIC value of caspofungin [3] [µg/mL]	MIC value of caspofungin (cdc50Δ mutant strain [4]) [µg/mL]	MIC H99 ([1]; Table S1, drug alone, wild type H99) [µg/mL]	MIC (FIC) of caspofungin in the presence of the AW9-Ma peptide (C. neoformans H99 [5]; C. neoformans wild type, combination with caspofungin) [µg/mL]	FIC H99 Caspofungin (C. neoformans H99 [5]; Table S1, concentration of caspofungin in combination with the peptide, H99) [µg/mL]	FIC H99 Peptide (C. neoformans H99 [5]; Table S1, concentration of peptide in combination with caspofungin, H99) [µg/mL]	FIC ΔCDC50 Caspofungin (ΔCDC50 mutant strain; Table S1, concentration of caspofungin in combination with the peptide) [µg/mL]	FIC ΔCDC50 Peptide (ΔCDC50 mutant strain; Table S1, concentration of peptide in combination with caspofungin) [µg/mL]	hemolysis at the concentrations needed for synergy [6]	hemolytic activity (fractional lysis) ([6]; varying concentrations, absorbance 410 nm)	percentage of cells with low propidium iodine (PI-A < 9 RU) and high AF350-annexin V intensity (Annexin V-A > 9 RU) [7]	growth in terms of CFU on agar medium with 0.03% SDS (C. neoformans H99 [8])
CC[C@H](C)C[C@H](C)CCCCCCCCC(=O)N[C@H]1C[C@@H](O)[C@@H](NCCN)NC(=O)[C@@H]2[C@@H](O)CCN2C(=O)[C@H]([C@H](O)CCN)NC(=O)[C@H]([C@H](O)[C@@H](O)c2ccc(O)cc2)NC(=O)[C@@H]2C[C@@H](O)CN2C(=O)[C@H]([C@@H](C)O)NC1=O [caspofungin, reference compound]	16 (≈ 14.6 µM)	16 (≈ 14.6 µM)	4 (≈ 3.66 µM)	16	4	–	–	–	–	–	–	–	–	–	–
CCCCCCCCCCCCCC(=O)N[C@@H](Cc1c[nH]c2ccccc12)C(=O)NCC(=O)NCC(=O)N[C@H](C(=O)N[C@@H](CCCCN)C(=O)N[C@@H](CCCCN)C(=O)N[C@@H](CC(N)=O)C(=O)N[C@@H](Cc1ccc(O)cc1)C(=O)N[C@@H](C)C(=O)O)[C@@H](C)CC [AW9-Ma] (Myristoyl-WGGIKKNYA-OH)	–	–	–	–	–	64 (≈ 51.3 µM)	4	4	16	0.125	0.125	low amounts of hemolysis	concentrate-dependent minimal amount of hemolysis	67.6% ± 2.3	significantly reduced growth
